Experiments:
Format in all cases: physicochemical
[1] = UV spectrum as a function of pH (phenol deprotonation pKa); settings: fit of UV absorbance vs pH
Procedure: To probe the speciation of the manganese complexes in solution, pH titrations of 1:1 Mn^2+:ligand were performed using a 1 N NaOH under N2 atmosphere (FIG. 21).
To determine the species that exists in these two pH ranges the UV spectrum as a function of pH was monitored (see FIGS. 22-24).

[2] = Stability of manganese complexes in buffers
Procedure: The stability of the manganese complexes were measured in different buffers using concentrations similar to those found in the blood plasma (1 mM phosphate buffer, 25 mM sodium bicarbonate buffer and 0.1 mM citrate buffer). A solution, 0.5 mM, of the manganese complex was incubated in the respective buffers at 37° C. (pH=7.4) and the species were then quantified on the LC-MS using the method as described earlier. The manganese complexes (0.5 mM) were also treated with EDTA (0.5 mM) in TRIS buffer (pH=7.4) and incubated at 37° C. for 1 hour. The species were then quantified on the LC-MS using the method as described earlier.

[3] = Cyclic voltammetry of the Mn(III)/Mn(II) redox couple
Procedure: Potentials are vs. K4Fe(CN)6/K3Fe(CN)6; and in (b), a Cottrell plot of the Mn^2+/Mn^3+ couple—ia, (decreasing line) and ic (increasing line) vs. √v, where v=scan rate.
(§1) Liquid chromatography-electrospray mass spectrometry (LC-MS) was performed using an Agilent 1100 Series apparatus with an LC/MSD trap and Daly conversion dynode detector with UV detection at 220, 254 and 280 nm. The methods used on this system are as follows: (a) Luna C18 column (100×2 mm); eluent A: H2O/0.1% formic acid, B: MeCN/0.1% formic acid; gradient: 5% B to 95% B over 9 minutes; flow rate 0.8 mL/min (used for characterization of organic compounds), and (b) Kromasil C18 column (250×4.6 mm); eluent C: 95% MeCN/5% 10 mM ammonium acetate, D: 10 mM ammonium acetate; gradient 5% C to 8% C over 14 minutes; flow rate 0.8 ml/min (used for characterization of manganese complexes). Reversed-phase semipreparative purification was performed on a Rainin Dynamax HPLC system with UV detection at 254 nm using a Polaris C18 column. The method used for purification is as follows: The mobile phase A was 50 mM ammonium acetate buffer, pH 6.5 and mobile phase B was a mixture of 5% 50 mM ammonium acetate buffer, pH 6.5/95% MeCN. Starting from 5% B, the fraction of B increased to 8% over 23 minutes. The column was washed with 100% B for 2 minutes and then ramped to 5% B. The system was re-equilibrated at 5% B for 3 minutes. Relaxivity measurements were performed on a Bruker mq60 Minispec at 1.4 T and 37° C. Manganese concentrations were determined using an Agilent 7500a ICP-MS system. All samples were diluted with 0.1% Triton X-100 in 5% nitric acid containing 20 ppb of Lu (as internal standard). The ratio of Mn (54.94)/Lu(174.97) was used to quantify the manganese concentration. A linear calibration curve ranging from 0.1 ppb to 200 ppb was generated daily for the quantification. UV-Vis spectra were recorded on a SpectraMax M2 spectrophotometer using quartz cuvette with a 1 cm path length. Cyclic voltammetry of Mn^IIHBET, Mn^IIEDTA and Mn^IIIHBET was recorded using a Nuvant EZstat pro potentiostat in TRIS buffer (pH=7.4), containing 0.5M KNO3 as supporting electrolyte, at 100 mVs-1 scan rate. Glassy carbon was used as the working electrode, Ag/AgCl served as the reference electrode and Pt wire was used as the auxiliary electrode. The K4FeCN6/K3FeCN6 couple was used as the internal standard.

[4] = T1 measurement by MR imaging at 4.7 T (Bruker Biospec); settings: room temperature, pH 7.4 TRIS buffer
Procedure: Right: relaxivities measured at room temperature at 4.7 T.
MR imaging was performed using a Bruker Biospec 4.7T system. Three samples (˜500 μL) were placed in a homemade sample holder and imaged using a volume coil. Acquisition matrix=64×256 for 0.234×0.312 mm^2 in-plane resolution; slice thickness=5 mm. T1-weighted images were obtained with a fast low angle shot (FLASH) gradient echo sequence: TR/TE/FA=20/5.44/40° with 8 averages. T1 was determined using a 2D rapid acquisition refocused echo (RARE) inversion recovery sequence: TR=3200 ms, TE=9.7 ms. Inversion times (TI): 5, 45, 85, 165, 325, 645, 1285, 1925 and 3205 ms. T1 was obtained from a nonlinear least square fit of the signal intensity (SI(t)) vs. TI curve where T1, SI(0) and a are adjustable parameters, equation S2.
SI(t)=SI(0)[1−α,e^TI/T1] (eq. S2)

[5] = T1 relaxivity (r1) by inversion recovery on Bruker mq60 Minispec, 1.4 T, 37° C., TRIS buffer pH 7.4
Procedure: as §1
T1 was measured with an inversion recovery pulse sequence taking 10 inversion times. Relaxivity was determined from the slope of a plot of 1/T1 vs. concentration of in TRIS buffer, pH=7.4 at 37° C. The concentration of manganese in each stock solution was determined using ICP-MS.
All chemicals and solvents were purchased commercially and used without further purification. NMR spectra were recorded on either a 500 MHz or 400 MHz Varian spectrometers. Chemical shifts are reported in δ (ppm). For ^1H and ^13C NMR spectra, the residual solvent peaks were used as internal reference, except for the ^13C NMR of the ligand where tertiary-butanol was used as the internal reference. Liquid chromatography-electrospray mass spectrometry (LC-MS) was performed using an Agilent 1100 Series apparatus with an LC/MSD trap and Daly conversion dynode detector with UV detection at 220, 254 and 280 nm. The methods used on this system are as follows: (a) Luna C18 column (100×2 mm); eluent A: H2O/0.1% formic acid, B: MeCN/0.1% formic acid; gradient: 5% B to 95% B over 9 minutes; flow rate 0.8 mL/min (used for characterization of organic compounds), and (b) Kromasil C18 column (250×4.6 mm); eluent C: 95% MeCN/5% 10 mM ammonium acetate, D: 10 mM ammonium acetate; gradient 5% C to 8% C over 14 minutes; flow rate 0.8 ml/min (used for characterization of manganese complexes). Reversed-phase semipreparative purification was performed on the Rainin Dynamax HPLC system with UV detection at 254 nm using a Polaris C18 column. The method used for purification is as follows: The mobile phase A was 50 mM ammonium acetate buffer, pH 6.5 and mobile phase B was a mixture of 5% 50 mM ammonium acetate buffer, pH 6.5/95% MeCN. Starting from 5% B, the fraction of B increased to 8% over 23 minutes. […]

Structure (SMILES): O=C([O-])CN(CCN(CC(=O)[O-])Cc1ccccc1[O-])CC(=O)[O-].[Mn+2].[Na+].[Na+] [Compound 4, Na2[Mn^IIHBET]]
- pKa for ionization of the phenol [1]: 7.64
- stability in phosphate and carbonate buffers [2]: stable
- reversible oxidation peak ([3]; TRIS buffer pH 7.4, vs. K4Fe(CN)6/K3Fe(CN)6): 0.356 V
- Half-cell potential vs. normal hydrogen electrode (NHE) ([3]; pH 7.4, vs. NHE): 379 mV
- fold higher relaxivity of reduced Mn^II-HBET form vs Mn^III-HBET [4]: 3.3 fold
- T1 relaxivities ([5]; 1.4 T, Tris buffered saline pH 7.4, 37° C.): 2.76 mM⁻¹ s⁻¹
- r1 (relaxivity of manganese complexes) ([5]; pH 7.4, 37° C., 1.4 Tesla): 2.76 mM⁻¹ s⁻¹

Source: patent US20150336996A1, “MANGANESE-BASED MAGNETIC RESONANCE CONTRAST AGENTS” (THE GENERAL HOSPITAL CORPORATION, priority 2013, published 2015)
